Reference: patent publication US20150342899A1 (NOVEN PHARMACEUTICALS, INC., priority 2012, published 2015)

Assay: in vitro flux study with human cadaver skin using a Franz cell apparatus
Assay type: in vitro ADME
Method: An in vitro flux study was conducted with human cadaver skin using a Franz cell apparatus to determine the flux of each drug from the matrix over a 24-hour period.

Structure (SMILES)	flux of drug from the matrix (transdermal system from polymer matrix of Example 1, about 1.05 mg/cm^2 amphetamine and about 0.28 mg/cm^2 clonidine, 24-hour period, FIG. 1, one sample)	pharmacokinetic (delivery) profile
CC(N)Cc1ccccc1 (stereo not drawn) [amphetamine, alpha-methylphenethylamine]	sufficient to achieve a therapeutic effect	–
Clc1cccc(Cl)c1N=C1NCCN1 [clonidine]	–	delivered over an extended period of time
